# Data reported in ChEMBL document CHEMBL1134523, “Isomerization of (Z,Z) to (E,E)1-bromo-2,5-bis-(3-hydroxycarbonyl-4-hydroxy)styrylbenzene in strong base: probes for amyloid plaques in the brain” (J Med Chem, 2001).
# Molecular target: Amyloid-beta precursor protein (Homo sapiens, UniProt P05067)
# Assay: Inhibitory activity against binding of [125I]IMSB to amyloid beta in brain
# Type: tissue-based
# Amyloid-beta precursor protein, sequence (P05067 whole entry): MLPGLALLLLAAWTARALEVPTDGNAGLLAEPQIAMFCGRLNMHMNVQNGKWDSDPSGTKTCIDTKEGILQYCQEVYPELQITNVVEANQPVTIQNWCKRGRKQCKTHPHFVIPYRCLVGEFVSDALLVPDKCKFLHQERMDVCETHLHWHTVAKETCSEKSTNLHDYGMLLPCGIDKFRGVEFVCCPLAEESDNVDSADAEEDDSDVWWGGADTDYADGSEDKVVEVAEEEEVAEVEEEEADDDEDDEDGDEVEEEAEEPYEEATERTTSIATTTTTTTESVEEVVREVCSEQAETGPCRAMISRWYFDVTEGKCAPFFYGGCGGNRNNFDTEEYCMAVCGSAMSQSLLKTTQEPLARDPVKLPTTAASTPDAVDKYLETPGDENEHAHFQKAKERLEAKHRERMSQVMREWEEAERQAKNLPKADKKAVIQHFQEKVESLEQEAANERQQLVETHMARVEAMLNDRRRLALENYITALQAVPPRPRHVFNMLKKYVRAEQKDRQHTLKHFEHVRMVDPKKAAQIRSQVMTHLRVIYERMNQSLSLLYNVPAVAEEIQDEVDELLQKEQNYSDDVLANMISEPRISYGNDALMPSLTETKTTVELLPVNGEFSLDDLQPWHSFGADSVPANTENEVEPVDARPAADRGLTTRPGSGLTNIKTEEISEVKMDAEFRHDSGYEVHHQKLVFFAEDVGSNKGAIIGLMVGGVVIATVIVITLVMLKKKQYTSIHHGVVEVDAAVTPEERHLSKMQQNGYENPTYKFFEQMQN
row,Structure (SMILES),Ki [nM]
1,O=C(O)c1ccccc1O [SALICYLIC ACID],> 1800
2,O=C(O)c1cc(/C=C\c2ccc(/C=C/c3ccc(O)c(C(=O)O)c3)c(Br)c2)ccc1O,0.27

# Further lines, results first:
row,Ki [nM],Structure (SMILES)
1,0.11,O=C(O)c1cc(/C=C/c2ccc(/C=C/c3ccc(O)c(C(=O)O)c3)c(Br)c2)ccc1O
2,0.13,O=C(O)c1cc(/C=C\c2ccc(/C=C\c3ccc(O)c(C(=O)O)c3)c(Br)c2)ccc1O
3,0.19,O=C(O)c1cc(/C=C\c2ccc(/C=C/c3ccc(O)c(C(=O)O)c3)cc2Br)ccc1O
